Reference: patent publication US20230295157A1, “3-(1H-IMIDAZOL-2-YL)-2,3,8,8A-TETRAHYDROINDOLIZIN-5(1H)-ONE DERIVATIVES USEFUL AS FACTOR XIA INHIBITORS” (JANSSEN PHARMACEUTICA NV, priority 2020, published 2023)
Like-named read-outs stand apart in the source and are kept apart here.

What was measured:
Factor XIa = Factor XIa (Homo sapiens (Human), UniProt P03951); test: Factor XIa inhibition assay (FLINT) utilizing a fluorophore-quencher pair peptide substrate; type: biochemical; details: 30 min preincubation, kinetic reads over 30 min, read-out: FXIa Kin Inh IC50
Summary of the method: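 FXIa ([…]) preincubated 30 min with compound (11-point 3-fold dilution, top 100 nM, 2% DMSO), then 15 μM quenched FXI Arg146-based peptide added; Tris pH 7.5, CaCl2, BSA, CHAPS. Fluorescence 485/520 nm read kinetically every 5 min over 30 min at RT; IC50 by 4-parameter fit.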

human plasma kallikrein = human plasma kallikrein (Homo sapiens (Human), UniProt P03952); test: Kallikrein inhibition assay (FLINT) utilizing a quenched AMC peptide substrate; type: biochemical; details: 30 min preincubation, kinetic reads over 30 min, Z-Gly-Pro-Arg-AMC substrate 50 μM; read-out: Kallikrein Kin Inh IC50
Summary of the method: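 Enzyme (2 nM final) pre-incubated 30 min at room temperature with compound (11-point, 3-fold, top 1 μM, 2% DMSO), then 50 μM Z-Gly-Pro-Arg-AMC added in Tris pH 7.5 buffer. Kinetic fluorescence 340/440 nm every 5 min over 30 min; IC50 from 4-parameter logistic fit.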

[1] = 5Fam-KLTRAETV-K5Tamra substrate 15 μM

Chain of human plasma kallikrein (P03952 391-638): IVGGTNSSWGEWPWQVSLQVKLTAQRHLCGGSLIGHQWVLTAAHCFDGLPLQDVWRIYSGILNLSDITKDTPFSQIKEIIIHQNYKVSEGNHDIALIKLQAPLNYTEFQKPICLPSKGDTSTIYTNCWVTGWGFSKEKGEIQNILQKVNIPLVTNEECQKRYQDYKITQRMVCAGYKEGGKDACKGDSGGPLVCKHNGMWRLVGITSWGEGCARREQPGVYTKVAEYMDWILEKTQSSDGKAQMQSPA
Chain of human plasma kallikrein (P03952 20-390 partner): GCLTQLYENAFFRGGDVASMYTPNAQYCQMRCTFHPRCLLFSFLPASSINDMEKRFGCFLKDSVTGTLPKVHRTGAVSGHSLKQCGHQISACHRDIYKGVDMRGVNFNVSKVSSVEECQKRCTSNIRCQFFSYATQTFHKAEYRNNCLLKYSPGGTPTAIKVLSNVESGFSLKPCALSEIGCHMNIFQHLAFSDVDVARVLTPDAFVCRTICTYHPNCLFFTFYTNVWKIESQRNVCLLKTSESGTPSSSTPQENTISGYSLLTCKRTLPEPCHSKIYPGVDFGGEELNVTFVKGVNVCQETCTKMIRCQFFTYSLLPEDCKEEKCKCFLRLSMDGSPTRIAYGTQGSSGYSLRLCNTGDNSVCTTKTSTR
Chain of Factor XIa (P03951 388-625): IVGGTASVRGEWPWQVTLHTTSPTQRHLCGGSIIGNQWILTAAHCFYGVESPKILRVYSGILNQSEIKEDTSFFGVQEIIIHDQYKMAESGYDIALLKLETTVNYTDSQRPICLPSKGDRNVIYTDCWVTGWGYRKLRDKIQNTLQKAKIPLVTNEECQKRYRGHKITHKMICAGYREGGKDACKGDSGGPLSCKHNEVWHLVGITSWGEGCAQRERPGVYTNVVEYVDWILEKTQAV
Chain of Factor XIa (P03951 19-387 partner): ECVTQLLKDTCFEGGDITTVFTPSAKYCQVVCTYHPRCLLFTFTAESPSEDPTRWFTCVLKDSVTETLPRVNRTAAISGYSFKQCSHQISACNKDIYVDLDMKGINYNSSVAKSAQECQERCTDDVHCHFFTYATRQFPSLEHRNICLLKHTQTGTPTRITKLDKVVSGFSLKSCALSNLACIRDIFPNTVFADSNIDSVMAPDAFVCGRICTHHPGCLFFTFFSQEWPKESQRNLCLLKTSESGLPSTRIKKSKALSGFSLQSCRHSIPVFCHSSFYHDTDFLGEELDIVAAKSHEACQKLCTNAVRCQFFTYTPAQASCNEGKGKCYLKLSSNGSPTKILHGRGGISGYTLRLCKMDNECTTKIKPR

SMILES | IC50 (Factor XIa; [1]) | IC50 (human plasma kallikrein) | IC50 (Factor XIa; 5Fam-[…]-K5Tamra substrate 15 μM)
Nc1ccc(-c2c[nH]c([C@@H]3CCC4CC(c5c(-c6cnc[nH]6)ccc(Cl)c5F)=CC(=O)N43)n2)c(F)n1 (stereo partly drawn) [Example 364, (3S)-3-(4-(6-Amino-2-fluoropyridin-3-yl)-1H-imidazol-2-yl)-7-(3-chloro-2-fluoro-6-(1H-imidazol-5-yl)phenyl)-2,3,8,8a-tetrahydroindolizin-5(1H)-one] | 87 nM | 610 nM | 
CC1C[C@@H](c2ncc(-c3ccc(N)nc3F)[nH]2)N2C(=O)C=C(c3c(-n4cnnn4)ccc(Cl)c3F)CC12 (stereo partly drawn) [Example 348, (3S)-3-(5-(6-Amino-2-fluoropyridin-3-yl)-1H-imidazol-2-yl)-7-(3-chloro-2-fluoro-6-(1H-tetrazol-1-yl)phenyl)-1-methyl-2,3,8,8a-tetrahydroindolizin-5(1H)-one] | 0.5 nM | 6.4 nM | 
O=C(Nc1ccsc1-c1c[nH]c([C@@H]2CCC3CC(c4c(-n5cnnn5)ccc(Cl)c4F)=CC(=O)N32)n1)C1CC1 (stereo partly drawn) [Example 248, N-[2-[2-[(3S)-7-[3-Chloro-2-fluoro-6-(tetrazol-1-yl)phenyl]-5-oxo-2,3,8,8a-tetrahydro-1H-indolizin-3-yl]-1H-imidazol-4-yl]-3-thienyl]cyclopropanecarboxamide] | 1 nM | 1.5 nM | 
O=C(Nc1cnccc1-c1c[nH]c([C@@H]2CCC3CC(c4c(-n5cnnn5)ccc(Cl)c4F)=CC(=O)N32)n1)C1CC1 (stereo partly drawn) [Example 370, N-(4-(2-((3S)-7-(3-chloro-2-fluoro-6-(1H-tetrazol-1-yl)phenyl)-5-oxo-1,2,3,5,8,8a-hexahydroindolizin-3-yl)-1H-imidazol-4-yl)pyridin-3-yl)cyclopropanecarboxamide] | 0.2 nM | 0.9 nM | 

Second part, the compound after the results:

IC50 (Factor XIa; [1]) | IC50 (human plasma kallikrein) | IC50 (Factor XIa; 5Fam-[…]-K5Tamra substrate 15 μM) | SMILES
1.5 nM | 2.9 nM |  | O=C1C=C(c2c(-n3cnnn3)ccc(Cl)c2F)C[C@H]2CC[C@@H](c3nc(-c4ccnc5[nH]ccc45)c[nH]3)N12 [Example 32, (3S,8aR)-3-(4-(1H-pyrrolo[2,3-b]pyridin-4-yl)-1H-imidazol-2-yl)-7-(3-chloro-2-fluoro-6-(1H-tetrazol-1-yl)phenyl)-2,3,8,8a-tetrahydroindolizin-5(1H)-one]
0.4 nM | 11.6 nM |  | [2H]c1cc(-c2cnc([C@@H]3CC[C@@H]4CC(c5cc(Cl)ccc5-n5cnnn5)=CC(=O)N43)[nH]2)c(F)nc1N [Example 124, (3S,8aR)-3-[5-(6-amino-5-deuterio-2-fluoro-3-pyridyl)-1H-imidazol-2-yl]-7-[5-chloro-2-(tetrazol-1-yl)phenyl]-2,3,8,8a-tetrahydro-1H-indolizin-5-one]
1.4 nM | 27.7 nM |  | COc1c(-c2cnc(C3CC[C@H]4CC(c5c(-n6cnnn6)ccc(Cl)c5F)=CC(=O)N34)[nH]2)ccnc1N (stereo in doubt) [Example 382, (3R,8aS)-3-(5-(2-amino-3-methoxypyridin-4-yl)-1H-imidazol-2-yl)-7-(3-chloro-2-fluoro-6-(1H-tetrazol-1-yl)phenyl)-2,3,8,8a-tetrahydroindolizin-5(1H)-one]
 | 1.1 nM | 0.2 nM | O=C1Nc2ccc(-c3cnc([C@@H]4CC[C@@H]5CC(c6c(-n7cnnn7)ccc(Cl)c6F)=CC(=O)N54)[nH]3)cc2CO1 (relative stereo) [Example 277, 6-(2-((3S,8aR)-7-(3-Chloro-2-fluoro-6-(1H-tetrazol-1-yl)phenyl)-5-oxo-1,2,3,5,8,8a-hexahydroindolizin-3-yl)-1H-imidazol-5-yl)-1,4-dihydro-2H-benzo[d][1,3]oxazin-2-one]
1.6 nM | 4.6 nM |  | O=C1CCc2cc(-c3cnc([C@@H]4CC[C@@H]5CC(c6cc(Cl)ccc6-n6cc(C(F)(F)F)nn6)=CC(=O)N54)[nH]3)ccc2N1 [Example 97, 6-(2-((3S,8aR)-7-(5-chloro-2-(4-(trifluoromethyl)-1H-1,2,3-triazol-1-yl)phenyl)-5-oxo-1,2,3,5,8,8a-hexahydroindolizin-3-yl)-1H-imidazol-5-yl)-3,4-dihydroquinolin-2(1H)-one]
